Test results taken from patent US12558428B2, “Heterobifunctional compounds and their use in treating disease” (Halda Therapeutics OpCo, Inc., priority 2024, dated 2026).
Like-named read-outs stand apart in the source and are kept apart here.

Legend:
Assay type in all cases: cell-based
[1] = system: T-Rex 293 cells having increased expression of estrogen receptor alpha protein; test: Cellular growth inhibition assay, T-Rex 293 cells, (+) doxycycline; settings: 72 hours
In short: (§1)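 ERα overexpression was switched on by 3 ng/mL doxycycline in a stably transfected T-Rex 293 clone, while uninduced cells served as the comparison line. Proliferation over 72 h of compound treatment was assessed by ATP luminescence, and GI50 values came from four-parameter curves.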

[2] = system: T-Rex 293 cells lacking increased expression of estrogen receptor alpha protein; test: Cellular growth inhibition assay, T-Rex 293 cells, (−) doxycycline; settings: 72 hours
In short: as §1

[3] = system: MCF7 cells (ATCC #HTB-22); test: Cellular growth inhibition assay, MCF7 cells purchased from ATCC; settings: Table 8-A, MCF7 cells purchased from ATCC, six days, CellTiter-Glo, read-out: GI50
In short: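 MCF7 cells in RPMI 1640 with 10% FBS and 0.2 U/ml insulin, seeded at 1,500 cells/well (ATCC) or 225 cells/well (ECACC). Compounds added 24 h later, then 6 days at 37° C. Viability by CellTiter-Glo 2.0 luminescence. GI50 from four-parameter fit.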

[4] = T-REx-293, 72 h, T-Rex 293 cells with doxycycline-induced ERα expression, CellTiter-Glo 2.0, read-out: (+) Dox TRex ERa (GI50)
[5] = T-REx-293, 72 h, T-Rex 293 cells without doxycycline, CellTiter-Glo 2.0, read-out: (−) Dox TRex ERa (GI50)
[6] = T-REx-293, 72 h, Table 7-A, T-Rex 293 cells with doxycycline (increased ERα expression), CellTiter-Glo, read-out: (+) Dox GI50
[7] = T-REx-293, 72 h, Table 7-A, T-Rex 293 cells without doxycycline (lacking increased ERα expression), CellTiter-Glo, read-out: (−) Dox GI50

| SMILES | GI50 [1, 4] | GI50 [2, 5] | GI50 ([3]; Homo sapiens, MCF7, 144 h) | GI50 [1, 6] | GI50 [2, 7] | GI50 ([1]; Table 7-A, T-Rex 293 cells with doxycycline (increased ERα expression), CellTiter-Glo, read-out: (+) Dox GI50) | GI50 ([2]; Table 7-A, T-Rex 293 cells without doxycycline (lacking increased ERα expression), CellTiter-Glo, read-out: (−) Dox GI50) | GI50 [3] |
| --- | --- | --- | --- | --- | --- | --- | --- | --- |
| Cc1sc2c(c1C)C(c1ccc(OCCOCCOCCCN3CC(Nc4ccc([C@@H]5c6ccc7n[nH]cc7c6C[C@@H](C)N5CC(F)(F)F)nc4)C3)cc1)=N[C@@H](C)c1nnc(C)n1-2 [I-33, 6-((6S,8R)-8-methyl-7-(2,2,2-trifluoroethyl)-6,7,8,9-tetrahydro-2H-pyrazolo[4,3-f]isoquinolin-6-yl)-N-(1-(3-(2-(2-(4-((S)-2,3,6,9-tetramethyl-6H-thieno[3,2-f][1,2,4]triazolo[4,3-a][1,4]diazepin-4-yl)phenoxy)ethoxy)ethoxy)propyl)azetidin-3-yl)pyridin-3-amine] | < 0.05 µM | > 2.5 µM | < 0.05 µM | – | – | – | – | – |
| CCN(Cc1ccc(CCN2CC[C@@H](OCCOCCOc3ccc(C4=N[C@@H](C)c5nnc(C)n5-c5sc(C)c(C)c54)cc3)C2)cc1)c1cc(OC)ccc1C1CCc2cc(O)ccc2C1 (stereo partly drawn) [I-34a, (R)-6-(2-(ethyl(4-(2-((R)-3-(2-(2-(4-((S)-2,3,6,9-tetramethyl-6H-thieno[3,2-f][1,2,4]triazolo[4,3-a][1,4]diazepin-4-yl)phenoxy)ethoxy)ethoxy)pyrrolidin-1-yl)ethyl)benzyl)amino)-4-methoxyphenyl)-5,6,7,8-tetrahydronaphthalen-2-ol] | – | – | 0.05 to 0.5 µM | 0.05 to 0.5 µM | 0.5 to 2.5 µM | – | – | – |
| CCN(Cc1ccc(CCN2CC[C@@H](OCCOCCOc3ccc(C4=N[C@@H](C)c5nnc(C)n5-c5sc(C)c(C)c54)cc3)C2)cc1)c1cc(OC)ccc1C1CCc2cc(O)ccc2C1 (stereo partly drawn) [I-34b, (S)-6-(2-(ethyl(4-(2-((R)-3-(2-(2-(4-((S)-2,3,6,9-tetramethyl-6H-thieno[3,2-f][1,2,4]triazolo[4,3-a][1,4]diazepin-4-yl)phenoxy)ethoxy)ethoxy)pyrrolidin-1-yl)ethyl)benzyl)amino)-4-methoxyphenyl)-5,6,7,8-tetrahydronaphthalen-2-ol] | – | – | – | – | – | < 0.05 µM | 0.5 to 2.5 µM | 0.05 to 0.5 µM |
| Cn1cc(-c2cc(C(C)(C)O)ccc2Oc2ccc(N3CCC4(CCN(CCOc5ccc(C(=O)c6c(-c7ccc(O)cc7)sc7cc(O)ccc67)cc5)CC4)C3)cc2)c2cc[nH]c2c1=O [I-35, 4-(2-(4-(8-(2-(4-(6-hydroxy-2-(4-hydroxyphenyl)benzo[b]thiophene-3-carbonyl)phenoxy)ethyl)-2,8-diazaspiro[4.5]decan-2-yl)phenoxy)-5-(2-hydroxypropan-2-yl)phenyl)-6-methyl-1,6-dihydro-7H-pyrrolo[2,3-c]pyridin-7-one] | < 0.05 µM | < 0.05 µM | < 0.05 µM | – | – | – | – | – |
| Cc1sc2c(c1C)C(c1ccc(OCCOCCCN3CC[C@H](Oc4ccc(C5=C(c6ccc(Cl)cc6Cl)CCCc6cc(O)ccc65)cc4)C3)cc1)=N[C@@H](C)c1nnc(C)n1-2 [I-36, 8-(2,4-dichlorophenyl)-9-(4-(((S)-1-(3-(2-(4-((S)-2,3,6,9-tetramethyl-6H-thieno[3,2-f][1,2,4]triazolo[4,3-a][1,4]diazepin-4-yl)phenoxy)ethoxy)propyl)pyrrolidin-3-yl)oxy)phenyl)-6,7-dihydro-5H-benzo[7]annulen-3-ol] | 0.5 to 2.5 µM | 0.5 to 2.5 µM | 0.5 to 2.5 µM | – | – | – | – | – |
| Cc1sc2c(c1C)C(c1ccc(CC3CC4(CCCN(c5ccc([C@@H]6c7ccc(O)cc7CC[C@@H]6c6ccccc6)cc5)C4)C3)cc1)=N[C@@H](C)c1nnc(C)n1-2 (stereo partly drawn) [I-44] | – | – | 0.5 to 2.5 µM | 0.05 to 0.5 µM | 0.5 to 2.5 µM | – | – | – |
| Cc1sc2c(c1C)C(c1ccc(C#CC3CC4(CCN(c5ccc([C@@H]6c7ccc(O)cc7CC[C@@H]6c6ccccc6)cc5)CC4)C3)cc1)=N[C@@H](Cc1ncco1)c1nnc(C)n1-2 [I-46] | – | – | 0.05 to 0.5 µM | < 0.05 µM | > 2.5 µM | – | – | – |
| Cc1sc2c(c1C)C(c1ccc(C#CC3CC4(CCN(c5ccc([C@@H]6c7ccc(O)cc7CC[C@@H]6c6ccccc6)cc5)CC4)C3)cc1)=N[C@@H](C)c1nnc(C)n1-2 [I-47] | – | – | 0.5 to 2.5 µM | 0.05 to 0.5 µM | > 2.5 µM | – | – | – |
| Cc1sc2c(c1C)C(c1ccc(OCCOCCCN3CC(Nc4ccc([C@@H]5c6ccc7n[nH]cc7c6C[C@@H](C)N5CC(F)(F)F)nc4)C3)cc1)=N[C@@H](C)c1nnc(C)n1-2 [I-57] | – | – | < 0.05 µM | < 0.05 µM | 0.5 to 2.5 µM | – | – | – |
| CC1=C(c2c(F)cc(F)cc2F)[C@H](c2ccc(OCCN3CC(COCCOc4ccc(C5=N[C@@H](C)c6nnc(C)n6-c6sc(C)c(C)c65)cc4)C3)cc2)Oc2ccc(O)cc21 [I-59] | – | – | 0.05 to 0.5 µM | 0.05 to 0.5 µM | 0.5 to 2.5 µM | – | – | – |
| CC1=C(c2ccc(O)cc2)[C@H](c2ccc(OCCN3CC[C@@H](OCCOCCOc4ccc(C5=N[C@@H](C)c6nnc(C)n6-c6sc(C)c(C)c65)cc4)C3)cc2)Oc2cc(O)ccc21 [I-60] | – | – | 0.05 to 0.5 µM | 0.05 to 0.5 µM | 0.5 to 2.5 µM | – | – | – |
| Cc1sc2c(c1C)C(c1ccc(CC3CC4(CCN(c5ccc([C@@H]6c7ccc(O)cc7CC[C@@H]6c6ccccc6)cc5)CC4)C3)cc1)=N[C@@H](Cc1ncco1)c1nnc(C)n1-2 [I-62, (5R,6S)-6-phenyl-5-(4-(2-(4-((S)-2,3,9-trimethyl-6-(oxazol-2-ylmethyl)-6H-thieno[3,2-f][1,2,4]triazolo[4,3-a][1,4]diazepin-4-yl)benzyl)-7-azaspiro[3.5]nonan-7-yl)phenyl)-5,6,7,8-tetrahydronaphthalen-2-ol] | – | – | > 2.5 µM | 0.05 to 0.5 µM | 0.5 to 2.5 µM | – | – | – |
| Cc1sc2c(c1C)C(c1ccc(N3CCN(CC4CCN(c5ccc([C@@H]6c7ccc(O)cc7CC[C@@H]6c6ccccc6)cc5)CC4)CC3)cc1)=N[C@H](Cc1ncco1)c1nnc(C)n1-2 [III-1, (5R,6S)-6-phenyl-5-(4-(4-((4-(4-((R)-2,3,9-trimethyl-6-(oxazol-2-ylmethyl)-6H-thieno[3,2-f][1,2,4]triazolo[4,3-a][1,4]diazepin-4-yl)phenyl)piperazin-1-yl)methyl)piperidin-1-yl)phenyl)-5,6,7,8-tetrahydronaphthalen-2-ol] | – | – | 0.5 to 2.5 µM | > 2.5 µM | > 2.5 µM | – | – | – |
| Cc1sc2c(c1C)C(c1ccc(N3CCN(CC4CCN(c5ccc([C@H]6c7ccc(O)cc7CC[C@H]6c6ccccc6)cc5)CC4)CC3)cc1)=N[C@H](Cc1ncco1)c1nnc(C)n1-2 [III-2, (5S,6R)-6-phenyl-5-(4-(4-((4-(4-((R)-2,3,9-trimethyl-6-(oxazol-2-ylmethyl)-6H-thieno[3,2-f][1,2,4]triazolo[4,3-a][1,4]diazepin-4-yl)phenyl)piperazin-1-yl)methyl)piperidin-1-yl)phenyl)-5,6,7,8-tetrahydronaphthalen-2-ol] | – | – | 0.5 to 2.5 µM | > 2.5 µM | > 2.5 µM | – | – | – |
| Cc1sc2c(c1C)C(c1ccc(N3CCN(CC4CCN(c5ccc([C@H]6c7ccc(O)cc7CC[C@H]6c6ccccc6)cc5)CC4)CC3)cc1)=N[C@@H](Cc1ncco1)c1nnc(C)n1-2 [III-3, (5S,6R)-6-phenyl-5-(4-(4-((4-(4-((S)-2,3,9-trimethyl-6-(oxazol-2-ylmethyl)-6H-thieno[3,2-f][1,2,4]triazolo[4,3-a][1,4]diazepin-4-yl)phenyl)piperazin-1-yl)methyl)piperidin-1-yl)phenyl)-5,6,7,8-tetrahydronaphthalen-2-ol] | – | – | 0.05 to 0.5 µM | 0.05 to 0.5 µM | 0.5 to 2.5 µM | – | – | – |
| Cc1sc2c(c1C)C(c1ccc(CC3CC4(CCN(c5ccc([C@@H]6c7ccc(O)cc7CC[C@@H]6c6ccccc6)cc5)CC4)C3)cc1)=N[C@H](Cc1ncco1)c1nnc(C)n1-2 [III-4, (5R,6S)-6-phenyl-5-(4-(2-(4-((R)-2,3,9-trimethyl-6-(oxazol-2-ylmethyl)-6H-thieno[3,2-f][1,2,4]triazolo[4,3-a][1,4]diazepin-4-yl)benzyl)-7-azaspiro[3.5]nonan-7-yl)phenyl)-5,6,7,8-tetrahydronaphthalen-2-ol] | – | – | > 2.5 µM | 0.5 to 2.5 µM | > 2.5 µM | – | – | – |
| Cc1sc2c(c1C)C(c1ccc(N3CCC(CN4CCN(c5ccc([C@@H]6c7ccc(O)cc7CC[C@@H]6c6ccccc6)cc5)CC4)CC3)cc1)=N[C@@H](C)c1nnc(C)n1-2 [III-5] | – | – | < 0.05 µM | < 0.05 µM | 0.5 to 2.5 µM | – | – | – |
| Cc1sc2c(c1C)C(c1ccc(N3CCC(CN4CCN(c5ccc([C@H]6c7ccc(O)cc7CC[C@H]6c6ccccc6)cc5)CC4)CC3)cc1)=N[C@@H](C)c1nnc(C)n1-2 [III-6] | – | – | 0.05 to 0.5 µM | 0.05 to 0.5 µM | 0.5 to 2.5 µM | – | – | – |
| Cc1sc2c(c1C)C(c1ccc(N3CCC(N4CC(Oc5ccc([C@@H]6c7ccc(O)cc7CC[C@@H]6c6ccccc6)cc5)C4)CC3)cc1)=N[C@@H](C)c1nnc(C)n1-2 [III-7] | – | – | 0.05 to 0.5 µM | 0.05 to 0.5 µM | 0.5 to 2.5 µM | – | – | – |
| Cc1sc2c(c1C)C(c1ccc(N3CCC(N4CC(Oc5ccc([C@H]6c7ccc(O)cc7CC[C@H]6c6ccccc6)cc5)C4)CC3)cc1)=N[C@@H](C)c1nnc(C)n1-2 [III-8] | – | – | 0.05 to 0.5 µM | 0.5 to 2.5 µM | 0.5 to 2.5 µM | – | – | – |
| Cc1sc2c(c1C)C(c1ccc(N3CCC(CN4CC(COc5ccc([C@H]6c7ccc(O)cc7CC[C@H]6c6ccccc6)cc5)C4)CC3)cc1)=N[C@@H](C)c1nnc(C)n1-2 [III-9] | – | – | 0.05 to 0.5 µM | < 0.05 µM | 0.05 to 0.5 µM | – | – | – |
